Entries after “also recorded” stand apart in the source; their conditions may differ.
Tests used:
anesthetized rat [1] = assay: Blood pressure and heart rate after subcutaneous injection in anesthetized rat; assay type: in vivo; details: injected subcutaneously
cloned hTRPM8 channel = cloned hTRPM8 channel (Homo sapiens (Human), UniProt Q7Z2W7); assay: TRPM8 agonist activity, Fluo-8 calcium FLIPR assay (ChanTest); assay type: cell-based; details: L-menthol = 1.0
Description: In the first set of data, the potency and in vitro effects of test compounds were evaluated on cloned hTRPM8 channel (encoded by the human TRPM8 gene, expressed in CHO cells) using a Fluo-8 calcium kit and a Fluorescence Imaging Plate Reader (FLIPR^TETRA™) instrument. […] Test solutions were in a HEPES-buffered saline, in 384-well plates, and placed into the FLIPR instrument (Molecular Devices Corporation, Union City, Calif., USA). […] The test cells were Chinese Hamster Ovary (CHO) cells stably transfected with human TRPM8 cDNAs. Concentration-response data were analyzed via FLIPR Control software) and fitted to a Hill equation for the EC50.

[2] = tested on: upper aerodigestive tract discomfort; assay: Case studies of DIPA-1-9 syrup in volunteers with upper aerodigestive tract discomfort; assay type: in vivo, human
Excerpt: The rationale and data set for selecting DIPA-1-9 in syrup as a treatment agent for upper aerodigestive discomfort have been described. […] The coolness spreads to the rest of throat and intensifies, as if a spoonful of rich ice cream had been swallowed. […] The cooling sensation can be used to facilitate mucus expectoration from the airways. Also relieved is the sense of suffocation when lying down to sleep in a subject that has dyspnea.

anesthetized rat [3] = assay: In vivo transdermal activity: shaking after topical application to abdominal skin of anesthetized rat; details: pure compound 20 μL on abdominal skin, counted 40 min
Description: Shaking frequency was counted for 40 min after topical application.
The importance of water solubility for permeation was further illustrated in studies on the abdominal skin of anesthetized rat. […] The pharmacokinetic determinants of bioactivity are precise. Thus, for the avoidance of cold discomfort, DIPA-1-9 has to reach the receptors in the stratum basale but not “over-stimulate”.

Oral Cavity and Pharynx [4] = assay: Sensory qualities of compounds in syrup applied to base of tongue of volunteers; assay type: in vivo, human; details: concentration increased to 15 mg/mL, 0.8 mL per dose
Oral Cavity and Pharynx [5] = assay: as above; assay type: in vivo, human
Description: The DIPA compounds was 5 mg/mL in cherry-flavored syrup in a volume of 0.8 mL per dose. The sensory effect were recorded every 5 min for 1 hr.
Tests were on four volunteers, with 3 to 5 trials per substance. Compounds were prepared in cherry-flavored syrup at 5 mg/mL and administered ˜0.8 mL per dose with a 2 mL plastic vial to the base of the tongue. The subjects asked to rate the sensations for cooling intensity, cold discomfort and adverse taste.
The concentration of the DIPA compounds was 5 mg/mL in cherry-flavored syrup administered in a volume of 0.8 mL per dose. The sensory effect were recorded every 5 min for 1 hr.

[6] = target: TRPV1 channels (human TRPV1 gene expressed in HEK293 cells) (Homo sapiens (Human), UniProt Q8NER1); assay: Selectivity on TRPV1 channels; assay type: cell-based; details: positive control capsaicin
Excerpt: (§1) In a third set, the selectivity of the test compounds on TRPM8, TRPV1 channels (human TRPV1 gene expressed in HEK293 cells) and TRPA1 channels (human TRPA1 gene expressed in CHO cells) were examined.
(§2) The selectivity of DIPA-1-9 on TRP channel receptors, TRPM8, TRPA1 and TRPV1 is shown in FIG. 3 of Yang et. al. A novel TRPM8 agonist relieves dry eye discomfort. BMC Ophthalmology ([…]) 17: 101, and incorporated herein by reference. The applicant is a co-author of this publication.

[7] = tested on: respiratory syncytial virus (RSV) induced cough; assay: Mouse cough model of respiratory syncytial virus infection; assay type: in vivo; details: 0.5 mg in 25 μL intranasally per mouse, 10 min before count
oropharynx and esophagus = assay: Sensory events and cold discomfort of compounds on throat, chest and body; details: for taste: oral cavity / tongue
Description: The terms “icy cold” is used to describe this adverse event in the throat.
Most likely, the compound rapidly distributed and activated cold sensations in the eosophageal lining.

rat skin = assay: Skin irritation tests on rat skin; assay type: in vivo; design: key to Redness after 20 μL applied topically to skin (scale of 0 to +++): scale of 0 to +++; scale of 0 to +++; scale of 0 to +++; scale of 0 to +++
[8] = Water solubility of 1-dialkylphosphorylalkanes; assay type: physicochemical
Excerpt: The DIPA compounds are colorless liquids with a density less than water. These structures differ from those described by Rowsell and Spring U.S. Pat. No. 4,070,496 because '496 structures have their “head” (phosphine oxide group) covered by larger, more lipophilic groups. […] The applicant synthesized these analogs (which are achiral, by contrast to the structures of '496 which are >95% chiral). […] This increased water-solublility is striking (Table 3). […] The DIPA analogs are now mobile in the extracellular fluids and permeate between cells to access nerve endings in the stratum basale.

[9] = tested on: capsaicin induced coughing; assay: Capsaicin induced coughing in an animal model; details: in vivo
[10] = target: TRPA1 channels (human TRPA1 gene expressed in CHO cells) (Homo sapiens (Human), UniProt O75762); assay: Selectivity on TRPA1 channels; assay type: cell-based; details: positive control mustard oil
Excerpt: as §1, §2

[11] = tested on: eyelids of patients with dry eye disorder; assay: Application to eyelids of patients with dry eye disorder; assay type: in vivo, human
oral cavity = assay: DIPA-1-9 sprayed into the mouth with aerosol sprayer
[12] = 10 subjects with cough, sprayer 5 mg/mL cherry syrup, 1 week
[13] = 5 mg/mL in cherry-flavored syrup, ~0.8 mL

TRPA1 channels (human TRPA1 gene expressed in CHO cells), sequence (O75762 whole entry): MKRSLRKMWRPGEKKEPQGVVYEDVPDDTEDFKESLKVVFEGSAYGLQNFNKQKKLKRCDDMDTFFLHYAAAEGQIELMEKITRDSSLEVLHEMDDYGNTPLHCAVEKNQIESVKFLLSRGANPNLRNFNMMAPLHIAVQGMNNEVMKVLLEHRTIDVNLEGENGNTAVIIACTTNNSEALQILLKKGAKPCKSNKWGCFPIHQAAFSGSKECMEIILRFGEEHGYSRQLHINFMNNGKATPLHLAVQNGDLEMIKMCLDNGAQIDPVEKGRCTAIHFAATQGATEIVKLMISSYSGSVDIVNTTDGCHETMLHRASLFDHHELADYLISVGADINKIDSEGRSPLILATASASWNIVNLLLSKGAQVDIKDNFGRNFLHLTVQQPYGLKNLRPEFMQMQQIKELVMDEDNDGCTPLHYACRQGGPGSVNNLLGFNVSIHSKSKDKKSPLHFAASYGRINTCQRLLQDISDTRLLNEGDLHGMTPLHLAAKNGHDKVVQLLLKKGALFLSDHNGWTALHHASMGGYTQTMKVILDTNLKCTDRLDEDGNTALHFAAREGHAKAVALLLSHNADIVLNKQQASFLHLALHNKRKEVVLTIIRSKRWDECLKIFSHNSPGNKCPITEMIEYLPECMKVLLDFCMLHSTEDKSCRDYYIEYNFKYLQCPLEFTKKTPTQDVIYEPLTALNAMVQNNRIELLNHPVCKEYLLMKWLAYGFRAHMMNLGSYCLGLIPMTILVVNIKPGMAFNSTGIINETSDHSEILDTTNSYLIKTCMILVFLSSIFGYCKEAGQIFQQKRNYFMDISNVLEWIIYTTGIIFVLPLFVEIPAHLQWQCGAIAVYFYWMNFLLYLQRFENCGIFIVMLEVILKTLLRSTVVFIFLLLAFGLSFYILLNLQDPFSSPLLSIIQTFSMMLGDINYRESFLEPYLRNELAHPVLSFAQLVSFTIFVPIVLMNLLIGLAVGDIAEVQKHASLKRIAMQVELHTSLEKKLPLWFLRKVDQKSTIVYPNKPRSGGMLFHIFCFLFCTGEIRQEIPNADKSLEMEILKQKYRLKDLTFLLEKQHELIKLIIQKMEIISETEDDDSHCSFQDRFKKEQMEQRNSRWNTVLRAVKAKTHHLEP
TRPV1 channels (human TRPV1 gene expressed in HEK293 cells), sequence (Q8NER1 whole entry): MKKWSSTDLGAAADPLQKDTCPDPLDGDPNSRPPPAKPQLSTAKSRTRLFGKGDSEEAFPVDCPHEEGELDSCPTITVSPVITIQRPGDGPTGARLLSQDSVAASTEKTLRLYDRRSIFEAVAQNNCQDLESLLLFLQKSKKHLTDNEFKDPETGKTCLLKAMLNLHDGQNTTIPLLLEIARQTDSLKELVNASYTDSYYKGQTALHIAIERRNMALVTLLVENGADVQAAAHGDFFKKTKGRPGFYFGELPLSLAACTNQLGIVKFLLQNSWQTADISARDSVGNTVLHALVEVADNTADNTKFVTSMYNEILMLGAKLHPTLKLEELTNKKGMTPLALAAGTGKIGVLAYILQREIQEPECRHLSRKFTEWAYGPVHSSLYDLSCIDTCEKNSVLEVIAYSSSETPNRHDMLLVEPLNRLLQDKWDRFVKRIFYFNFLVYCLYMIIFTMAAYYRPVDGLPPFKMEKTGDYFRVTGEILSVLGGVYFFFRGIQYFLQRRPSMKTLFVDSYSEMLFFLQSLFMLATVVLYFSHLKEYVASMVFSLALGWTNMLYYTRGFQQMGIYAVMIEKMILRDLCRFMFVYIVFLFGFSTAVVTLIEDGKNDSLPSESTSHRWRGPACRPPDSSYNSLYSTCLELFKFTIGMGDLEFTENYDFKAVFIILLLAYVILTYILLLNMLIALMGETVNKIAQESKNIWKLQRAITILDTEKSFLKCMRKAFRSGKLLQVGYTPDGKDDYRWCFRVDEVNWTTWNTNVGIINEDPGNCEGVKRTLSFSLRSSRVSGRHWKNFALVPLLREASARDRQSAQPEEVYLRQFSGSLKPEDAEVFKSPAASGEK
cloned hTRPM8 channel, sequence (Q7Z2W7 whole entry): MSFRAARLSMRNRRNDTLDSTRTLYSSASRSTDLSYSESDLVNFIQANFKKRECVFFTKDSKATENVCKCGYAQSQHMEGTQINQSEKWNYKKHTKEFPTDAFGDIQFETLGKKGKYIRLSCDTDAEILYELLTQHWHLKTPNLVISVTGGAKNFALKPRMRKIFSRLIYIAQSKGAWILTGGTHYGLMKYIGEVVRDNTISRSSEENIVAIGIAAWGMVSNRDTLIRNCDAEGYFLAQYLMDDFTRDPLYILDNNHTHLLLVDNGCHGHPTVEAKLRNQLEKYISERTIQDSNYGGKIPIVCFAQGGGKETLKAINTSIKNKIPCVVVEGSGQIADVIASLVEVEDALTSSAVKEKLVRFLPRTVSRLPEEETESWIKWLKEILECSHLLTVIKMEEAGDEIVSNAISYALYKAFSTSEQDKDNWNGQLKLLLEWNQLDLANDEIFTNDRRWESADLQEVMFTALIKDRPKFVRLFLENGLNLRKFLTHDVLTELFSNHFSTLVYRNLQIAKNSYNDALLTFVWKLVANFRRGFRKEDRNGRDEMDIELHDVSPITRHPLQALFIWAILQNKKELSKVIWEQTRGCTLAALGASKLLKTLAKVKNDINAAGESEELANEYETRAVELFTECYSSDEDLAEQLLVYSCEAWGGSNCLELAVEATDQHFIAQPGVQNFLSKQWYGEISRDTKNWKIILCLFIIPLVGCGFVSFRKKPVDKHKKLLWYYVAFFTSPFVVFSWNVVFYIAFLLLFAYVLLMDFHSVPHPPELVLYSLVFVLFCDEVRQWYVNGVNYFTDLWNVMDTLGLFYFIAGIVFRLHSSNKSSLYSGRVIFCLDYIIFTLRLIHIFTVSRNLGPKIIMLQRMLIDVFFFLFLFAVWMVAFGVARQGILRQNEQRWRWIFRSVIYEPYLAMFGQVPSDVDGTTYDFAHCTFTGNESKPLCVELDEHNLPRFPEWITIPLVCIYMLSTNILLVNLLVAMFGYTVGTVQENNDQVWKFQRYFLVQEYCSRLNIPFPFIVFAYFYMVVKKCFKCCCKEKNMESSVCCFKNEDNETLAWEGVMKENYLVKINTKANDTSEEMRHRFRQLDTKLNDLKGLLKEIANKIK

**Q.** With `CCCCCCCCCP(=O)(C(C)C)C(C)C` [DIPA-1-9, 1-Di(isopropyl)-phosphinoyl-nonane] as the compound, how does the “effect on blood pressure or heart rate” value (anesthetized rat [1]) read?
**A.** did not affect blood pressure or heart rate

**Q.** What about the “Relative Potency to L-menthol” value (cloned hTRPM8 channel) of the same compound?
**A.** 4.0

**Q.** And the discomfort of satiety ([2]; 8 mg/mL in simple syrup, three over-weight individuals)?
**A.** instantly relieved

**Q.** What about the “chronic cough outcome (cough variant asthma cases)” value ([2]; 8 mg/mL in syrup, 1 mL vials as needed) of the same compound?
**A.** the coughing problem had disappeared; also recorded: the cough was gone

**Q.** And the “subjects reporting not effective” value [2, 12]?
**A.** 3

**Q.** And the “subjects reporting partially effective” value [2, 12]?
**A.** 4

**Q.** What about the “subjects reporting very effective” value [2, 12] of the same compound?
**A.** 3

**Q.** What about the “residual antinociceptive effect duration” value ([2]; application to the throat) of the same compound?
**A.** 3 h

**Q.** What about the “time to decrease in cough frequency” value ([2]; person, 8 mg/mL in cherry-flavored syrup) of the same compound?
**A.** ≤ 3 days

**Q.** What about the “shaking after topical application” value (anesthetized rat [3]) of the same compound?
**A.** not active

**Q.** And the “pain or discomfort at increased concentration” value (Oral Cavity and Pharynx [4])?
**A.** did not produce icy cold or pain

**Q.** What about the “Adverse Taste” value (Oral Cavity and Pharynx [5]; [13]) of the same compound?
**A.** 0

**Q.** What about the Discomfort (Oral Cavity and Pharynx [5]; [13]) of the same compound?
**A.** 0

**Q.** And the Sensation (Oral Cavity and Pharynx [5]; [13])?
**A.** cool

**Q.** What about the “persistence of general sense of refreshment in the throat” value (Oral Cavity and Pharynx [5]; human, in vivo) of the same compound?
**A.** ≥ 3 h

**Q.** What about the “activity on TRPV1 (selectivity)” value [6] of the same compound?
**A.** selective for TRPM8 and not TRPVI and TRPA1; also recorded: not on TRPV1 or TRPA1 receptors

**Q.** And the cough frequency [7]?
**A.** significantly inhibited cough frequency

**Q.** What about the “icy cold / pain in throat” value (oropharynx and esophagus; DIPA-1-9 up to 12 mg per unit) of the same compound?
**A.** not seen; also recorded: did not produce stinging

**Q.** And the taste (oropharynx and esophagus)?
**A.** did not have significant adverse taste

**Q.** And the taste (oropharynx and esophagus; listed as DIPA1-9)?
**A.** does not have a strong metallic taste

**Q.** And the inflammatory response (rat skin; pure compound, 20 μL, abdominal skin of anesthetized rat)?
**A.** did not cause significant inflammatory response

**Q.** What about the “Redness after 20 μL applied topically to skin (scale of 0 to +++)” value (rat skin; rat skin, 20 μL) of the same compound?
**A.** 0

**Q.** What about the “irritation of shaved rat skin” value (rat skin; up to 20 mg/mL) of the same compound?
**A.** not to be irritating

**Q.** What about the “water solubility relative to prior art / di-sec-butyl or mixed isopropyl-sec-butyl analogs” value [8] of the same compound?
**A.** 10 ×

**Q.** And the solubility ([8]; water)?
**A.** > 300 mg/mL

**Q.** And the capsaicin induced coughing [9]?
**A.** inhibited capsaicin induced coughing

**Q.** And the “activity on TRPA1 (selectivity)” value [10]?
**A.** selective for TRPM8 and not TRPVI and TRPA1; also recorded: not on TRPV1 or TRPA1 receptors

**Q.** And the irritation of eyelids [11]?
**A.** not to be irritating

**Q.** And the taste (oral cavity; 10 mg/mL spray)?
**A.** slight taste of bitterness

**Q.** What about the “persistence of sensation of cooling” value (oral cavity; 10 mg/mL spray, contents spat out) of the same compound?
**A.** ≥ 1 h

**Q.** What about the “cooling of oral cavity” value (oral cavity; 10 mg/mL, 0.07 mL per activation, 3 activations) of the same compound?
**A.** robust cooling of the oral cavity

— patent US11406649B2, “Treatment of upper aerodigestive tract disorders and cough” (IVIEW THERAPEUTICS, INC., priority 2018, dated 2022)
